These results are taken from patent US6458354B1, “Molecular complexes which modify immune responses” (The Johns Hopkins University, priority 1996, dated 2002).

The subject of one assay is RENCA cells. Briefly: Effect of γ-IFN on endogenous peptide/H-2 L^d complexes of RENCA cells, FACS with 2C TCR/Ig or mAb 30.5.7. The conditions noted are these: for effect of prior incubation of RENCA cells with peptide on 2C TCR/Ig binding: saturating peptide. In kind it is cell-based, murine. On the procedure: FIGS. 13(A-H). Fluorescence data showing modulation of endogenous 2C specific peptide/H-2 L^d complexes on the surface of RENCA cells by γ-IFN. RENCA cells were cultured for 48 hours with 0 (FIGS. 13A and 13E), 5 (FIGS. 13B and 13F), 10 (FIGS. 13C and 13G), or 50 (FIGS. 13D and 13H) units/ml γ-IFN. […] This was accomplished by incubating RENCA cells with saturating amounts of the H-2 L^d binding peptide, MCMV, which efficiently displaced the endogenous H-2 L^d bound peptides, including any 2C-reactive peptides. […] Cells were subsequently stained with GAM-IgG-RPE and analyzed by FACS. Resultant histograms are shown. Solid lines represent histograms of cultures with no added peptide while dotted lines represent histograms from cultures incubated with pMCMV. All experiments were done in duplicate and repeated at least three times. Note the differences in the extent of fluorescence (see the scales on the histograms) upon staining with 2C-TCR/Ig vs. staining with 30.5.7.
Peptide Loading of Cells. RMA-S and T2 cell lines are defective in antigen processing and express functionally “empty” class I MHC on their cell surface. These “empty” MHC molecules can be loaded with peptides using the following protocol (25). Cells (RMA-S, RMA-S L^d, T2, T2 L^d, T2 Kb, T2 Kbm3 or T2 K^bm11) are cultured at 27° C. overnight. The following morning, cells are cultured in the presence of various antigenic peptides (100 μM final concentration) or in the absence of peptides for an additional 1.5 hours at 27° C. and then incubated for one hour at 37° C. RENCA cells were loaded with peptides by incubation with peptides (100 μM final concentration) for >2 hour at 37° C. Cells were then harvested and processed for FACS analysis as described.
To analyze this possibility and to follow the expression of endogenous 2C-reactive peptide/H-2 L^d complexes within a heterogeneous peptide/MHC environment, the influence of γ-IFN on the H-2 L^d -expressing murine cell line RENCA was studied.
RENCA cells were cultured in the presence of variable amounts of γ-IFN to induce up-regulation of naturally loaded peptide/MHC complexes. […] The effect of γ-IFN was dose dependent with a maximal 2-3 fold increase seen on cells treated with 10 units/ml of γ-IFN.

The test system of assay [1] is 2C CTL, T2 K^bm3 target cells. In kind it is cell-based. On the procedure:
(§1) FIGS. 12(A-C). 2C CTL mediated lysis on various peptide/MHC targets. […] Peptide-loaded target cells were then incubated at an effector to target ratio of 10:1 and specific lysis calculated as described below. Data shown are representative of three separate experiments.
(§2) CTL Assays. Splenocytes from 2C TCR transgenic mice (Sha et al. Nature 336:73-76, 1988) were resuspended at 1.25×10^6 per ml and stimulated with 1.75×10^6 BALB/c splenocytes that had been exposed to 3,000 cGy radiation. On day 7, the 2C T cell-enriched cultures were restimulated at 5×10^5 per ml with 2.5×10^6 per ml BALB/c splenocytes. Experiments were performed on this and subsequent stimulationUs on day 4. All subsequent stimulation was performed with 3.75×10^5 per ml 2C splenocytes and 2.5×10^6 per ml BALB/c cells in the presence of IL-2 (5 units/ml).
(§3) Assays were performed in triplicate according to established CTL protocols. Briefly, target cells (2-4×10^6) were incubated with […] ^51[Cr] at 37° C. for 1 h. After three washes, cells were added to V-bottom 96 well plates (3×10^3/100 μl) and incubated (25° C. for 1.5 hour) with peptides at the indicated concentrations. 2C T cells (3×10^4/100 μl) were added to targets and plates were incubated at 37° C. for 4.5 hour. Maximum release was achieved by incubating targets with 5% Triton X 100. Percent specific lysis was calculated from raw data using [(experimental release—spontaneous release )/(maximum release—spontaneous release)]×100.

Assay [2] deals with 2C CTL, T2 K^b target cells. The assay is classed as cell-based. On the procedure: as §1, §2, §3
In assay [3] the test system is 2C CTL, T2 K^bm11 target cells. Briefly: 2C CTL mediated lysis of peptide-loaded T2 K^bm11 targets. The assay is classed as cell-based, mice. The conditions noted are these: data not shown. How it is done: as §2, §3
Assay [4] has as its target serologically reactive H-2 L^d on RENCA cells (murine) (UniProt P01897). Put plainly: flow cytometry on unstimulated RENCA cells. (In flow cytometry, cells or beads pass a laser one at a time.)
Assay [5] shares this target. Briefly: flow cytometry on RENCA cells stimulated with 5-50 units/ml γ-IFN.
Assay [6] concerns the target dEV-8-loaded H-2 K^bm3 (mouse). Briefly: cell-based or functional assay.
Assay [7] concerns the target p2Ca-loaded H-2 L^d (mouse) (UniProt P01897). Put plainly: cell-based or functional assay.
The target in assay [8] is SIY-loaded H-2 K^b (mouse) (UniProt P01901). Put plainly: cell-based or functional assay.
SIY-loaded H-2 K^b (mouse), sequence (P01901 22-369): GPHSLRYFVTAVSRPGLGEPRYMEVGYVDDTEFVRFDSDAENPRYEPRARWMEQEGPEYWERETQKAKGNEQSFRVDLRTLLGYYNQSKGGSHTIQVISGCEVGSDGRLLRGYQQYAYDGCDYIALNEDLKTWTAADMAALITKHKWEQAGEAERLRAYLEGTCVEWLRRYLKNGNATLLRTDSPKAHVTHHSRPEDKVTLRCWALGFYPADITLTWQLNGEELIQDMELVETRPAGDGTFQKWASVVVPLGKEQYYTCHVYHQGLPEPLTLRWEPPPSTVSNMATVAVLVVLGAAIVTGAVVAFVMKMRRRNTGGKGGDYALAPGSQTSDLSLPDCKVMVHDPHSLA
Assay [9] has as its target SIY-loaded H-2 K^bm3 (mouse). Briefly: cell-based or functional assay.
The target of the next assay is 2C TCR. As to conditions: read-out: Kd (μM) of 2C TCR for peptide/MHC complex; MHC restriction H-2 Ld; monovalent 2C TCR; cited from earlier work.
The target of assay [10] is pVSV-loaded H-2 K^bm3 (mouse). Briefly: flow cytometry on peptide-loaded T2 K^bm3 cells.
The target of assay [11] is SIY-loaded H-2 K^bm3 (mouse). Briefly: flow cytometry on peptide-loaded T2 K^bm3 cells.
For assay [12], the target named is pVSV-loaded H-2 K^b (mouse) (UniProt P01901). Briefly: flow cytometry on peptide-loaded T2 K^b cells.
pVSV-loaded H-2 K^b (mouse), sequence (P01901 22-369): as above
Assay [13] concerns the target SIY-loaded H-2 K^b (mouse) (UniProt P01901). Put plainly: flow cytometry on peptide-loaded T2 K^b cells.
For assay [14], the target named is SL9-loaded H-2 L^d (mouse) (UniProt P01897). Briefly: direct flow cytometry on peptide-loaded RMA-S L^d cells.
SL9-loaded H-2 L^d (mouse), sequence (P01897 25-309): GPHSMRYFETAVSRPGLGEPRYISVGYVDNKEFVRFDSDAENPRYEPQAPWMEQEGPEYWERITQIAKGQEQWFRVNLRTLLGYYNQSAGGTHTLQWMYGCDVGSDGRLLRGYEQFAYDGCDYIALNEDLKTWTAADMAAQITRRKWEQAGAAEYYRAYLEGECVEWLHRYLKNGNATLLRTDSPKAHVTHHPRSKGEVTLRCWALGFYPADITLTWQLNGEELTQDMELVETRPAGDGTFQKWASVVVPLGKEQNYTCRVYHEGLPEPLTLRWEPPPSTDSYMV
Assay [15] addresses p2Ca-loaded H-2 L^d (mouse) (UniProt P01897). Briefly: flow cytometry, serial dilutions on peptide-loaded RMA-S L^d cells, H57-FITC detection.
Assay [16] deals with QL9-loaded H-2 L^d (mouse) (UniProt P01897). The assay is described as above.
QL9-loaded H-2 L^d (mouse), sequence (P01897 25-362): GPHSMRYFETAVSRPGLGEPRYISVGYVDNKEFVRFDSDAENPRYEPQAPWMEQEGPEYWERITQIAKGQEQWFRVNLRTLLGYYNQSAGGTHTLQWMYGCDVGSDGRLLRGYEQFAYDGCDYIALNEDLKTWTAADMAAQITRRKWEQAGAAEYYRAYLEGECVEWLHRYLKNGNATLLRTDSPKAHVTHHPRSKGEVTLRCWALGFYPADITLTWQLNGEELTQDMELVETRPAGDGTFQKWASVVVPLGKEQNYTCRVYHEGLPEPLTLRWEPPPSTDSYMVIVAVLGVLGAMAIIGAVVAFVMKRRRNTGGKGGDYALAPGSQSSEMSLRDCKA
Assay [17] has the same target. Put plainly: direct flow cytometry on peptide-loaded L^d cells.

“And” between values parts separate entries of the source, which are not always exact repeats. Equal entries are not always repeated. Where no end group is shown, it is not given here.

soluble divalent 2C TCR/Ig, sequence (A2KF29 whole entry, looked up, tested part not stated): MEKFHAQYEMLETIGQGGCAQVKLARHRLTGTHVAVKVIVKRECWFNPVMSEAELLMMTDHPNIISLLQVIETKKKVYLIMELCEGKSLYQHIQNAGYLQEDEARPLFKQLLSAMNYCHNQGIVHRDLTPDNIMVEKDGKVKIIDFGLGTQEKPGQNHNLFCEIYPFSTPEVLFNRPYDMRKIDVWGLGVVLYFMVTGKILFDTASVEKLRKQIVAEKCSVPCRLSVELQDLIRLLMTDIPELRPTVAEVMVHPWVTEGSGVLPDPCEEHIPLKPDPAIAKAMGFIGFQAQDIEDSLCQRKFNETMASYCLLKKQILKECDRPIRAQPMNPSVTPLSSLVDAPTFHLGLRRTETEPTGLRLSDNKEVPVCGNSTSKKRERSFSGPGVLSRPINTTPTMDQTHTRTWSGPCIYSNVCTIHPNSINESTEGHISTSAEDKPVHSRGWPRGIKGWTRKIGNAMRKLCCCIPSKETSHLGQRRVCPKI
2C TCR on 2C CTL, sequence (A2KF29 whole entry): as the sequence (A2KF29 whole entry, looked up, tested part not stated) above
serologically reactive H-2 L^d on RENCA cells (murine), sequence (P01897 25-362): as the sequence (P01897 25-362) above
p2Ca-loaded H-2 L^d (mouse), sequence (P01897 25-362): as above

With YPHFMPTNL [pMCMV], in the assay on RENCA cells, the “effect of prior incubation of RENCA cells with peptide on 2C TCR/Ig binding” value was “blocked”.

On to SIYRYYGL [SIY], for which the results for the “2C CTL mediated lysis of peptide loaded targets” value in assay [1], in assay [2] and in assay [3] were “significantly less efficient”, “efficient lysis” and “efficient lysis”, respectively. Moreover, the “LD50 of peptide for 2C CTL mediated lysis” value in [1] (T2 K^bm3 targets, effector to target ratio 10:1) is ~100 ng/mL.

As to mAb 30.5.7 (antibody), the figures for the mean channel fluorescence (MCF) in assay [4] and in assay [5] were 500 and 2670 to 3040, respectively.

As for 2C TCR on 2C CTL (from UniProt A2KF29), the LD50 of peptide for 2C CTL mediated lysis was 0.5 ng/mL and 1 ng/mL in assay [6]; 10 ng/mL in [8]; 100 ng/mL in assay [9]. Further, in assay [7], the LD50 of peptide for 2C CTL mediated lysis of p2Ca-loaded T2 L^d cells was 0.5 ng/mL.

For the substance QLSPFPFDL [QL9], the Kd at 2C TCR is 0.066 µM. In addition, the “effect of prior incubation of RENCA cells with peptide on 2C TCR/Ig binding” value in the assay with RENCA cells is recorded as “dramatic increase”.

On to “soluble divalent 2C TCR/Ig (from UniProt A2KF29)”, for which the mean channel fluorescence (MCF) in assay [10] is 12; in assay [11], 36; in [12], 14; in assay [13], 276; in [14], 100; in [17], 3000. Also, in assay [15], the concentration required to detect binding came to 3 nM. In assay [16], this substance came in with a lowest concentration tested, at which binding was detected of 1 nM.

Regarding LSPFPFDLL [SL9], the Kd on 2C TCR is 71 µM.

In the case of “γ-IFN: lymphokine used to up-regulate naturally loaded peptide/MHC complexes on RENCA cells”, in the assay on RENCA cells (5-50 units/ml γ-IFN, 48 hours), the “increase in serologically reactive H-2 L^d recognized by mAb 30.5.7” value is 5-6 fold. Moreover, the “maximal increase of 2C TCR/Ig binding to RENCA cells” value in the assay with RENCA cells (10 units/ml γ-IFN, 48 hours) is recorded as 2-3 fold.

As for EQYKFYSV [dEV-8], the “2C CTL mediated lysis of peptide loaded targets” value in assay [1] is listed as “efficiently lysed”; in [2] it was “neither lysed”; in [3] it was “relatively poor targets”.

With LSPFPFDL [p2Ca], at 2C TCR, the Kd is 0.1 to 0.5 µM.
